According to patent US12297176B2, “Compounds and methods for inhibiting EMT pathways to treat cancer, organ fibrosis and metabolic disorders” (University of Pittsburgh—Of the Commonwealth System of …, priority 2017, dated 2025):

Columns and labels:
[1] = system: Hippo pathway; assay: Hippo pathway luciferase reporter in 293 cells; type: cell-based; settings: 24 hours
Method: (§1) FIGS. 1A-1C. CPADAML16 is a common inhibitor of Wnt (FIG. 1C), TGF beta (FIG. 1B), and Hippo (FIG. 1A). 293 cells were transfected with luciferase reporters corresponding to each pathway and then exposed to CPADAML16, the Wnt inhibitor Pyrvinium (PYR) or the TGF beta inhibitor SB-431 at the indicated concentrations. After 24 hours, the cells were lysed and luciferase activity measured. Data represents average of three replicates ±SE.
The present disclosure concerns the discovery of small molecules inhibitors of major EMT pathways particularly those mediated by TGF beta, Wnt and Hippo. These pathways are known to play key roles in the induction of epithelial-mesenchymal transition (EMT) a cellular process responsible for cancer metastasis, resistance to therapy and organ fibrosis. […] In a search for putative inhibitors of the Hippo pathway, a luciferase reporter system was used to screen a series of chemical compounds. […] CPADAML16 suppressed cancer cell ability to undergo EMT, to proliferate and to become drug resistant. Investigation of the underlying mechanism led to the finding that CPADAML16 induces degradation of the Hippo transducer TAZ mainly by activating AMPK upstream of the GSK3 beta associated degradation complex. CPADAML16 exerted a strong anti-tumor activity in a xenograft mice model with no noticeable toxicity. […]

[2] = system: Wnt signaling; assay: Wnt pathway luciferase reporter in 293 cells; type: cell-based; settings: 24 hours
Method: as §1
(§2) By comparison, none of Wnt or TGF beta inhibitors had affected the Hippo pathway reporter. Based on this, CPADAML16 may represent a unique candidate molecule to target simultaneously the Hippo, Wnt and TGF beta pathways.

[3] = system: TGF beta signaling; assay: TGF beta pathway luciferase reporter in 293 cells; type: cell-based; settings: 24 hours
Method: as §1, §2

[4] = system: TAZ; assay: Western blot of Hippo pathway transducers: TAZ; type: cell-based
Source text: (§3) FIGS. 2A-2D. Putative mechanism. FIG. 2A. Effect of CPADAML16 on Hippo pathway transduces YAP, TAZ and TEAD measured by Western blot. FIG. 2B. Possible signaling pathways leading to degradation of TAZ. The effects of CPADAML16 on the Mst/Lats kinases and the Akt/GSK3 beta axis are shown in FIGS. 2C and 2D, respectively.
(§4) There are three possibilities by which this might occur (FIG. 2B): 1) through activation Mst/Lats, 2) inhibition of Akt or 3) activation of AMPK. […] In light of recent findings that TAZ is also target of the GSK3 beta associated destruction complex, we reasoned that CPADAML16 may act directly or indirectly to activate this complex. […] These effects were concentration and time dependent and valid in various cell lines […]. […] Together these findings identified AMPK as a novel target of CPADAML16, shedding light on a new mechanism by which this compound could signal for TAZ degradation and inhibition of Hippo signaling.

[5] = system: YAP; assay: Western blot of Hippo pathway transducers: YAP; type: cell-based
Source text: as §3, §4

[6] = system: TEAD; assay: Western blot of Hippo pathway transducers: TEAD; type: cell-based
Source text: as §3, §4

[7] = system: MST1; assay: Activation (phosphorylation) of Hippo core kinase MST1; type: cell-based
Source text: as §3, §4

[8] = system: Lats1; assay: Activation (phosphorylation) of Hippo core kinase Lats1; type: cell-based
Source text: as §3, §4

[9] = system: GSK3 beta; assay: Phosphorylation of GSK3; type: cell-based; settings: inhibited phosphorylation = induced activation
Source text: as §3, §4

[10] = system: Akt; assay: Phosphorylation of Akt; type: cell-based
Source text: as §3, §4

[11] = system: AMPK; assay: Phosphorylation of AMPK at threonine 172; type: cell-based
Source text: FIGS. 3A-3G. Effect of CPADAML16 on […]. FIGS. 3A and 3B. Dose and time dependent effects of CPADAML16 on phosphorylation of AMPK. FIG. 3C. Effect of AICAR on phosphorylation of AMPK. FIG. 3D. Effect of CPADAML16 on phosphorylation of AMPK downstream target ACC. FIGS. 3E-3G. Confirmation CPADAML16-induced AMPK phosphorylation in different cell lines.
as §4

[12] = system: cell migration; assay: Cell monolayer scratch, cell migration; type: cell-based
Method: (§5) FIGS. 4A-4C. Inhibition of cell migration, proliferation and resistance to therapy by CPADAML16. FIG. 4A. Cell monolayer scratch depicting inhibition of cell migration by CPADAML16. FIG. 4B. Effect on cell proliferation measured after 5 days of incubation. FIG. 4C. Cell response to doxorubicin was measured in the presence and absence of CPADAML16. Data in FIG. 4C represent average of three determinations ±SE.

[13] = system: three melanoma and one breast cancer cell lines; assay: Cell proliferation after 5 days of incubation; type: cell-based
Method: as §5

[14] = system: melanoma cell; assay: Cell response to doxorubicin with and without compound; type: cell-based
Method: as §5

[15] = system: melanoma cells WM266; assay: Anti-tumor activity in mice bearing xenograft tumors; type: in vivo, nude mice (strain CD1); settings: 20 mg/Kg, 3 injections, end of experiment
Method: (§6) FIGS. 5A-5B. Effect of CPADAML16 (20 mg/kg) on tumor growth (FIG. 5A) and body weight (FIG. 5B). Data represents 7 replicates ±SE.
(§7) Experiments were carried out to analyse the anti-tumor activity and safety of CPADAML16 in mice bearing xenograft tumors. For this, nude mice (strain CD1) were sub-cutaneously inoculated with melanoma cells WM266 and after tumors became palpable, they were randomized into control and treatment groups and received 3 injections (starting on day 15 and separated by three days) of vehicle (control group) or CPADAML16 dissolved in the vehicle solution (treatment groups). Tumor volumes and body weight were measured and mice evaluated for signs of toxicity on a daily basis. At the end of experiments, the animals were sacrificed and tumors harvested to determine if molecular targets of CPADAML16 were altered.

[16] = Body weight and signs of toxicity in xenograft mice; type: in vivo, nude mice (strain CD1); settings: WM266 xenograft mice
Method: as §6, §7

## CCCCCOc1ccccc1C(=O)c1cc(C(=O)OCC)c(=O)n(Cc2ccccc2)c1 [CPADAML16, 3-Ethoxycarbonyl-5-(o-pentyloxybenzoyl)-1-(benzyl)pyridin-2-one]
[1]
  Hippo pathway reporter luciferase activity: remarkable inhibitory activity
[2]
  Wnt signaling reporter luciferase activity: remarkably inhibited
[3]
  TGF beta signaling reporter luciferase activity: remarkably inhibited
[4]
  Taz levels: reduced in a concentration dependent manner
[5]
  YAP levels: largely unaltered
[6]
  TEAD levels: largely unaltered
[7]
  phosphorylation of MST1: did not affected phosphorylation
[8]
  phosphorylation of Lats1: did not affected phosphorylation
[9]
  phosphorylation of GSK3: inhibited phosphorylation
[10]
  phosphorylation of Akt: not due to reduced phosphorylation of Akt
[11]
  potency of AMPK activation compared with AICAR: more potent than AICAR
[11]; concentration and time dependent, various cell lines
  phosphorylation of AMPK at threonine 172: strongly induced phosphorylation
[12]
  cell migration: strongly inhibits
[13]
  proliferation: strongly inhibits
[14]
  melanoma cell response to doxorubicin in the presence of the compound: significantly enhanced
[15]
  tumor growth inhibition: about 90%
[16]; 20 mg/kg
  body weight: did not change significantly
[16]; evaluated daily
  health / signs of toxicity: in good health throughout the experiment
